According to PMC11323312, “Structural response of G protein binding to the cyclodepsipeptide inhibitor FR900359 probed by NMR spectroscopy” (Chemical Science, 2024):
Starred links: 1 amine or outer side, 2 acyl side, 3 side chain; linkers in the order of their positions; H or OH if unused. Positions of bridges follow the written chain, without caps; N, C: chain ends. Non-standard residues stand in square brackets, D forms with d. Residues, ends and D or L forms follow the SMILES beside them. *: point of attachment. Leu(3R-OH,Nα-propionyl) = CCC(=O)N[C@H](C(=O)*)[C@H](O)C(C)C; X1 = CC(C)[C@@H](O[*:3])[C@H](N[*:1])C(=O)[*:2]; NMeT = CN[C@H](C(=O)O)[C@@H](C)O; dPhLac = O=C(O)[C@H](O)Cc1ccccc1; NMeA = CN[C@@H](C)C(=O)O; NMeDha = C=C(NC)C(=O)O

How the values were obtained:
[1] = biological target: T1, chimeric Gαi/q protein (FR-sensitive Gαi mutant) (Homo sapiens, UniProt P63096, H188P/K180P/K54R/T187Y/V185I/V50I/V72L/Y69F); assay: Radioligand binding ([3H]PSB-15900 homologous competition, filtration assay); settings: chimeric Gαi/q on TALON beads, 5 μg protein; [3H]PSB-15900 5 nM; unlabeled FR 0.003-30 μM; 2 h, 4 °C; 50 mM Tris-HCl pH 7.4; one-site homologous equation; mean ± SD of 3 independent experiments in duplicates
T1 construct: made in house; host or cells: E. coli (pET16b)
Method: The purified chimeric Gαi/q protein was preincubated with TALON immobilized metal affinity chromatography (IMAC) resin beads (Takara Bio) for 1–2 h at 4 °C with gentle shaking (0.025 μL beads per 0.1 mL of protein solution in 50 mM Tris–HCl, pH 7.4; final protein amount per sample: 5 μg). Each sample contained 70 μL of assay buffer (50 mM Tris–HCl, pH 7.4), 5 μL of dimethyl sulfoxide (DMSO) or the test compound (dissolved in DMSO), 50 μL of [^3H]PSB-15900 (FR-derived radioligand; 28 Ci/mmol; Pharmaron, Cardiff, UK)[14] in assay buffer (final concentration: 5 nM) and 125 μL of protein solution. Total binding of [^3H]PSB-15900 was determined using 5 μL of DMSO, and non-specific binding was determined using 5 μL of unlabeled FR900359 (final concentration: 5 μM). For competition binding experiments, dilutions from 30 μM to 0.003 μM of unlabeled FR900359, dissolved in DMSO, were added. Incubation was performed for 2 h at 4 °C with gentle shaking. […]
Multiple regions of the protein are either directly involved in binding of cyclodepsipeptide inhibitors, as shown by structural data on bound YM,[23] or show an indirect response to binding of the inhibitor, as proposed by MD simulations.[13,25] To investigate the conformational response of the G protein to inhibitor binding, structural alterations of the G protein itself must be detected. […]

Gαi/q = assay: Structural response to inhibitor binding by DNP-enhanced ssNMR (13C-NCOCX, unique pair labeling); settings: inhibitor : protein 1.5 : 1, 4 °C overnight, nominal 105 K
Method: The protein response to inhibitor binding was studied by HNCO(CX) experiments with 20 ms mixing time recorded on DNP samples of frozen Gαi/q protein solution. The polarizing agent AsymPolPOK[36] was dried from a chloroform : methanol (1 : 1) stock solution to form a film that was resuspended with 1 mg of protein solution that was concentrated to a volume of 15 μL, subsequently 15 μL of d8-glycerol was added. The final concentration of radical in the mixture with the protein sample in the 3.2 mm NMR rotor was 10 mM. The samples were measured at a DNP setup consisting of a 400 MHz Avance Neo spectrometer (Bruker) with a 3.2 mm Cryo MAS HCN probe (Bruker) and a 263 GHz Gyrotron as microwave source. All experiments were done at a nominal temperature of 105 K. A MAS rate of 8 kHz and proton decoupling of 100 kHz were chosen. To investigate the effects of inhibitor binding, the protein solution was incubated with unlabeled FR or YM from a 10 mM DMSO stock solution at an inhibitor to protein molar ratio of 1.5 : 1 at 4 °C overnight. To study the effects of nucleotide binding, 5 μL of GDP was added to the samples from a 17 mM solution of GDP : MgCl2 (3 : 1 molar ratio) directly into the rotor. The GTP-bound state was generated by subsequent addition of 2 μL of GTP [0.1 M] and 2 μL AlF4 salt solution (150 mM MgCl2, 75 mM NaF, 15 mM AlCl3). DNP enhancement was measured by comparison of ^13C-CP spectra with and without microwave irradiation. Referencing was done indirectly using the right peak of d8-glycerol at 64.78 ppm.
In order to collect information about conformational changes in a spatially resolved manner, a unique pair labeling approach was chosen,[50] resulting in signals in the NMR spectra from a unique pair of neighboring amino acids in NCO type experiments. […] To obtain sufficient signal intensity in the experiments, spectra were recorded using DNP-enhanced ssNMR. […] Under those conditions, the full sampled conformational space is conserved and reflected in NMR line shapes, which can then be analyzed. […]

T1 sequence (P63096 whole entry V50I/K54R/Y69F/V72L/K180P/V185I/T187Y/H188P): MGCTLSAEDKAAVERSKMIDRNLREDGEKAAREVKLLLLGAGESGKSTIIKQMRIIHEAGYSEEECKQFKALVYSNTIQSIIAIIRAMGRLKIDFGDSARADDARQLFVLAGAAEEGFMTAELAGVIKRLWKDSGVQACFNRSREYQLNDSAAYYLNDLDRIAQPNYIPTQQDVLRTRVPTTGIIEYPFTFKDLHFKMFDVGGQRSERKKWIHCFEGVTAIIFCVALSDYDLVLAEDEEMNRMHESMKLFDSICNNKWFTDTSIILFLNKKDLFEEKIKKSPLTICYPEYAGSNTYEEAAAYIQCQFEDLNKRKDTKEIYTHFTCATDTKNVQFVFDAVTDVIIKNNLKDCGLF

Compound | Kd [1] [nM] | response of switch III (R242-M243) to inhibitor binding (Gαi/q; RM-pair) | response of α5 helix (V335-F336) to inhibitor binding (Gαi/q; VF-pair) | response of switch I (V179-P180) to inhibitor binding (Gαi/q; VP-pair)
C=C1C(=O)N[C@@H](C)C(=O)N(C)[C@@H](C)C(=O)N[C@@H]([C@H](OC(=O)[C@@H](NC(=O)CC)[C@H](O)C(C)C)C(C)C)C(=O)N(C)[C@@H]([C@@H](C)OC)C(=O)O[C@H](C(C)C)[C@H](NC(C)=O)C(=O)O[C@H](Cc2ccccc2)C(=O)N1C [FR, FR900359] (Ac-[X1][dPhLac][NMeDha]A[NMeA][X1](Leu(3R-OH,Nα-propionyl))[NMeT](Me); ester 1-C) | 271 ± 69 |  |  | 
YM-254890 |  | no effects in switch III | minor effects | clear narrowing of the ^13C valine signals
